According to article PMC9161616, “A first-in-human phase 1/2 study of FGF401 and combination of FGF401 with spartalizumab in patients with hepatocellular carcinoma or biomarker-selected solid tumors” (Journal of Experimental & Clinical Cancer Research : CR, 2022):
“Also recorded” adds a separate entry of the source.

Experiments:
[1] = system: FGF19-FGFR4 signaling; experiment: Blood-based pharmacodynamic biomarkers (C4, total bile acids, FGF19, cholesterol); type: in vivo, human
Procedure: An immunohistochemistry (IHC) assay to detect FGF19 was used retrospectively on remnant samples and the association of FGF19 expression levels with best change in sum of diameters (SOD) for RECIST v1.1 in the single-agent was evaluated. […] FGF19 was quantified using a capture-ELISA assay from R&D System, Cat. nr. DF1900, with a LLOQ of 27.2 pg/mL and ULOQ of 1096.3 pg/mL. C4: 7α-Hydroxy-4-cholesten-3-one was determined using an LC-MS/MS method. The concentration of total bile acids were measured using the colorimetric diazyme’s enzymatic total bile acids assay.

[2] = system: HCC and gastric cancer cell lines expressing FGFR4, KLB and FGF19; settings: excellent selectivity over non-sensitive tumor models; cited from earlier work
[3] = most patients across the FGF401 dose levels

## COCCNc1cc(NC(=O)N2CCCc3cc(CN4CCN(C)CC4=O)c(C=O)nc32)ncc1C#N [FGF401, roblitinib]
[1]; all doses tested
  dose-response analyses with the pharmacodynamic biomarkers: did not identify any associations; also recorded: without a clear dose response
[1]; [3]
  change in C4 level: Increase; also recorded: treatment-induced elevation
  change in total bile acid level: Increase; also recorded: treatment-induced elevation
[1]; single-agent arm
  change in circulating FGF19: Increase
  change in total cholesterol: decrease
[2]
  growth of cell lines: inhibits growth
